From patent publication US11840686B2, “Modulation of prekallikrein (PKK) expression” (Ionis Pharmaceuticals, Inc., priority 2013, dated 2023)
Strand notation (5' to 3'): a small letter for the sugar, then the base; units joined by * are phosphorothioate-linked, units joined directly phosphodiester-linked; [ ] holds rarer units or linkages, { } end groups; capitals alone tell only the bases. e = 2'-O-(2-methoxyethyl) (MOE); [5mC] = 5-methylcytosine; d = 2'-deoxy (DNA)

Tests used:
human PKK mRNA [1] = experiment: Antisense inhibition of human PKK mRNA in HepaRG cells, 5,000 nM (Example 2); assay type: cell-based
Method in brief: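 Percent inhibition of PKK mRNA is relative to untreated control, with qRT-PCR (probe set RTS3454) values adjusted to total RNA by RIBOGREEN. Oligonucleotides, fully phosphorothioate 2′-MOE gapmers, were delivered at 5,000 nM by electroporation into 20,000 HepaRG cells/well for about 24 h.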

human PKK mRNA [2] = experiment: Dose-dependent antisense inhibition of human PKK in HepaRG cells, 0.19-5.00 uM (Example 5); assay type: cell-based; details: HepaRG cells; for percent inhibition of PKK at 0.19 μM / percent inhibition of PKK at 0.56 μM / percent inhibition of PKK at 1.67 μM / percent inhibition of PKK at 5.00 μM: electroporation, approximately 16 hours; for percent inhibition of PKK mRNA, 0.19 μM: 0.19 μM antisense oligonucleotide; for percent inhibition of PKK mRNA, 0.56 μM: 0.56 μM antisense oligonucleotide; for percent inhibition of PKK mRNA, 1.67 μM: 1.67 μM antisense oligonucleotide; for percent inhibition of PKK mRNA, 5.00 μM: 5.00 μM antisense oligonucleotide
Method in brief: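 PKK mRNA knockdown was measured by real-time PCR (primer probe set RTS3454) about 16 h after electroporating 20,000 HepaRG cells per well with oligonucleotide at four doses from 0.19 to 5.00 μM. Levels were adjusted to RIBOGREEN-measured total RNA, and IC50 values were calculated.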

[3] = 4 point dose response, Table 38
[4] = 4 point dose response, Table 36
[5] = human PKK mRNA, HepaRG cells, 5,000 nM antisense oligonucleotide, Table 18
[6] = 4 point dose response, Table 39
[7] = human PKK mRNA in HepaRG cells, 5-10-5 gapmers, Table 14

Row | Substance | percent inhibition of PKK mRNA, 0.19 μM (human PKK mRNA [2]) | percent inhibition of PKK mRNA, 0.56 μM (human PKK mRNA [2]) | percent inhibition of PKK mRNA, 1.67 μM (human PKK mRNA [2]) | percent inhibition of PKK mRNA, 5.00 μM (human PKK mRNA [2]) | IC50 (human PKK mRNA [2]; 0.19-5.00 μM) | percent inhibition of PKK at 0.19 μM (human PKK mRNA [2]; Table 39) | percent inhibition of PKK at 0.56 μM (human PKK mRNA [2]; Table 39) | percent inhibition of PKK at 1.67 μM (human PKK mRNA [2]; Table 39) | percent inhibition of PKK at 5.00 μM (human PKK mRNA [2]; Table 39) | IC50 (human PKK mRNA [2]; [6]) | other results
1 | 546410 (eG*eA*e[5mC]*eT*eT*dT*dG*dG*dG*dT*dT*dT*d[5mC]*dT*dG*e[5mC]*e[5mC]*eA*eA*e[5mC]; antisense) [compound 546410] |  |  |  |  |  |  |  |  |  |  | % inhibition (human PKK mRNA [1]; HepaRG cells, electroporation, 5,000 nM antisense oligonucleotide, approx. 24 hours, primer probe set RTS3454, relative to untreated control cells, Table 12): 83%; percent inhibition of PKK at 0.19 μM (human PKK mRNA [2]; Table 38): 13%; percent inhibition of PKK at 0.56 μM (human PKK mRNA [2]; Table 38): 43%; percent inhibition of PKK at 1.67 μM (human PKK mRNA [2]; Table 38): 52%; percent inhibition of PKK at 5.00 μM (human PKK mRNA [2]; Table 38): 75%; IC50 (human PKK mRNA [2]; [3]): 1.2 µM
2 | 547293 (antisense e[5mC]*eA*eT*e[5mC]*eT*dG*dG*d[5mC]*dA*dG*dT*dA*dT*dT*dG*eG*eG*e[5mC]*eA*eT) [compound 547293] | 0% | 45% | 65% | 70% | 1.3 µM |  |  |  |  |  | % inhibition (human PKK mRNA [1]; HepaRG cells, electroporation with 5,000 nM antisense oligonucleotide, approximately 24 hours, PKK mRNA by RT-PCR (RTS3454), relative to untreated control cells, Table 5 experiment): 92%; percent inhibition of PKK at 0.19 μM (human PKK mRNA [2]; Table 36): 53%; percent inhibition of PKK at 0.56 μM (human PKK mRNA [2]; Table 36): 57%; percent inhibition of PKK at 1.67 μM (human PKK mRNA [2]; Table 36): 80%; percent inhibition of PKK at 5.00 μM (human PKK mRNA [2]; Table 36): 86%; IC50 (human PKK mRNA [2]; [4]): 0.2 µM
3 | 548757 (antisense eA*eG*eT*eA*dT*d[5mC]*dA*d[5mC]*dT*dG*dT*dA*d[5mC]*eT*eA*eG*eT) [compound 548757] |  |  |  |  |  | 18% | 49% | 82% | 93% | 0.6 µM | % inhibition (human PKK mRNA [1]; [5]): 87%
4 | 547585 (eA*eA*e[5mC]*eA*eG*dT*dA*dT*d[5mC]*dA*d[5mC]*dT*dG*dT*d[5mC]*e[5mC]*eT*eA*eT*eA; antisense) [compound 547585] | 0% | 46% | 89% | 93% | 0.8 µM |  |  |  |  |  | % inhibition (human PKK mRNA [1]; [7]): 85%; percent inhibition of PKK at 0.19 μM (human PKK mRNA [2]; Table 38): 42%; percent inhibition of PKK at 0.56 μM (human PKK mRNA [2]; Table 38): 57%; percent inhibition of PKK at 1.67 μM (human PKK mRNA [2]; Table 38): 70%; percent inhibition of PKK at 5.00 μM (human PKK mRNA [2]; Table 38): 95%; IC50 (human PKK mRNA [2]; [3]): 0.4 µM
5 | 547617 (antisense e[5mC]*eT*eG*eT*e[5mC]*d[5mC]*dT*dA*dT*dA*dT*d[5mC]*dA*d[5mC]*dT*eG*eT*eA*e[5mC]*e[5mC]) [compound 547617] | 17% | 37% | 79% | 98% | 0.7 µM |  |  |  |  |  | % inhibition (human PKK mRNA [1]; [7]): 91%; percent inhibition of PKK at 0.19 μM (human PKK mRNA [2]; Table 36): 52%; percent inhibition of PKK at 0.56 μM (human PKK mRNA [2]; Table 36): 66%; percent inhibition of PKK at 1.67 μM (human PKK mRNA [2]; Table 36): 77%; percent inhibition of PKK at 5.00 μM (human PKK mRNA [2]; Table 36): 93%; IC50 (human PKK mRNA [2]; [4]): 0.2 µM
6 | 548743 (DNA e[5mC]*eA*e[5mC]*eT*dG*dT*dA*d[5mC]*dT*dA*dG*dT*dT*eT*e[5mC]*e[5mC]*eT; antisense) [compound 548743] | 22% | 47% | 74% | 96% | 0.6 µM |  |  |  |  |  | % inhibition (human PKK mRNA [1]; [5]): 80%; percent inhibition of PKK at 0.19 μM (human PKK mRNA [2]; Table 40): 25%; percent inhibition of PKK at 0.56 μM (human PKK mRNA [2]; Table 40): 57%; percent inhibition of PKK at 1.67 μM (human PKK mRNA [2]; Table 40): 73%; percent inhibition of PKK at 5.00 μM (human PKK mRNA [2]; Table 40): 88%; IC50 (human PKK mRNA [2]; 4 point dose response, Table 40): 0.5 µM
7 | 546208 (antisense e[5mC]*eG*eT*eT*eA*d[5mC]*dT*d[5mC]*dA*dG*d[5mC]*dA*d[5mC]*d[5mC]*dT*eT*eT*eA*eT*eA) [compound 546208] | 5% | 33% | 70% | 97% | 0.9 µM |  |  |  |  |  | % inhibition (human PKK mRNA [1]; HepaRG cells, electroporation with 5,000 nM antisense oligonucleotide, approximately 24 hours, PKK mRNA by RT-PCR (RTS3454), relative to untreated control cells, Table 6 experiment): 92%; percent inhibition of PKK at 0.19 μM (human PKK mRNA [2]; Table 35): 16%; percent inhibition of PKK at 0.56 μM (human PKK mRNA [2]; Table 35): 45%; percent inhibition of PKK at 1.67 μM (human PKK mRNA [2]; Table 35): 79%; percent inhibition of PKK at 5.00 μM (human PKK mRNA [2]; Table 35): 91%; IC50 (human PKK mRNA [2]; 4 point dose response, Table 35): 0.7 µM
8 | 546739 (eA*eT*eT*e[5mC]*eG*dG*dT*dG*dT*d[5mC]*dT*dT*dT*dA*d[5mC]*eT*eG*eG*e[5mC]*eT; antisense) [compound 546739] | 4% | 62% | 84% | 86% | 0.6 µM |  |  |  |  |  | % inhibition (human PKK mRNA [1]; Table 13, human PKK mRNA in HepaRG cells, 5-10-5 gapmers): 89%; percent inhibition of PKK at 0.19 μM (human PKK mRNA [2]; Table 37): 35%; percent inhibition of PKK at 0.56 μM (human PKK mRNA [2]; Table 37): 55%; percent inhibition of PKK at 1.67 μM (human PKK mRNA [2]; Table 37): 57%; percent inhibition of PKK at 5.00 μM (human PKK mRNA [2]; Table 37): 79%; IC50 (human PKK mRNA [2]; 4 point dose response, Table 37): 0.6 µM
9 | 546876 (eG*eT*e[5mC]*e[5mC]*eT*dA*dT*dA*dT*d[5mC]*dA*d[5mC]*dT*dG*dT*eA*e[5mC]*e[5mC]*eT*eG; antisense) [compound 546876] |  |  |  |  |  | 0% | 50% | 85% | 95% | 0.8 µM | % inhibition (human PKK mRNA [1]; [7]): 87%
10 | 547632 (antisense eT*e[5mC]*eA*e[5mC]*eT*dG*dT*d[5mC]*d[5mC]*dT*dA*dT*dA*dT*d[5mC]*eA*e[5mC]*eT*e[5mC]*eT) [compound 547632] | 0% | 0% | 63% | 91% | 1.6 µM | 44% | 47% | 81% | 97% | 0.6 µM | % inhibition (human PKK mRNA [1]; human PKK mRNA, HepaRG cells, 5-10-5 motif oligonucleotides targeting SEQ ID NO: 1 and 10): 87%
11 | 547453 (antisense eT*e[5mC]*eA*eT*eG*dA*dT*dT*d[5mC]*d[5mC]*d[5mC]*dT*dT*d[5mC]*dT*eG*eA*eG*eA*e[5mC]) [compound 547453] |  |  |  |  |  | 25% | 40% | 54% | 92% | 0.8 µM | % inhibition (human PKK mRNA [1]; Table 9 experiment, HepaRG cells, 20,000 cells per well, electroporation with 5,000 nM antisense oligonucleotide, approx. 24 hours, PKK mRNA by RT-PCR (RTS3454), relative to untreated control cells): 81%; % inhibition (human PKK mRNA [1]; Table 10 experiment, HepaRG cells, 20,000 cells per well, electroporation with 5,000 nM antisense oligonucleotide, approx. 24 hours, PKK mRNA by RT-PCR (RTS3454), relative to untreated control cells): 81%
